The supplement of paper PMC8967900

Columns and labels:
Assay in all cases: selective drug sensitivity score (sDSS, relative to normal bone marrow) (sDSS (score)); higher = more potent and effective on the cell line relative to normal bone marrow cells
Conditions in all cases: 72 h
[1] = test system: NALL-1
[2] = test system: ALL-SIL
[3] = test system: COG-LL-332h
[4] = test system: KASUMI-2
[5] = test system: LC4-1
[6] = test system: PF-382
[7] = test system: COG-LL-402h
[8] = test system: COG-LL-319h
[9] = test system: NALM-6
[10] = test system: MOLT-14
[11] = test system: MHH-CALL-2
[12] = test system: SUP-B15
[13] = test system: MHH-CALL-4
[14] = test system: P12-ICHIKAWA
[15] = test system: MOLT-4
[16] = test system: KASUMI-10
[17] = test system: TANOUE
[18] = test system: 697
[19] = test system: COG-LL-317
[20] = test system: ALL-PO
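Note: ALL cell lines in 384-well plates, five doses spanning 10,000-fold, each plate scaled between vehicle and 100 µmol/L benzalkonium chloride controls, sDSS an adapted area-under-curve metric.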

| Structure (SMILES) | selective drug sensitivity score [1] | selective drug sensitivity score [2] | selective drug sensitivity score [3] | selective drug sensitivity score [4] | selective drug sensitivity score [5] | selective drug sensitivity score [6] | selective drug sensitivity score [7] | selective drug sensitivity score [8] | selective drug sensitivity score [9] | selective drug sensitivity score [10] | selective drug sensitivity score [11] | selective drug sensitivity score [12] | selective drug sensitivity score [13] | selective drug sensitivity score [14] | selective drug sensitivity score [15] | selective drug sensitivity score [16] | selective drug sensitivity score [17] | selective drug sensitivity score [18] | selective drug sensitivity score [19] | selective drug sensitivity score [20] |
| --- | --- | --- | --- | --- | --- | --- | --- | --- | --- | --- | --- | --- | --- | --- | --- | --- | --- | --- | --- | --- |
| Cc1ccc(NC(=O)c2ccc(CN3CCN(C)CC3)cc2)cc1Nc1nc(-c2cccnc2)cs1 [Masitinib] (top concentration 10000 nM) | -4.38 | 11.6 | 5.52 | -4.38 | -2.18 | 1.42 | -1.48 | -3.88 | 0.32 | 1.12 | -1.68 | 7.52 | -4.38 | 0.32 | -0.38 | -3.48 | -4.38 | 1.32 | 3.32 | -1.28 |
| CCN(CC)CCCC(C)Nc1c2ccc(Cl)cc2nc2ccc(OC)cc12 (stereo not given) [Mepacrine] (top concentration 50000 nM) | -10 | -7.3 | -0.4 | -9.5 | -4 | -4.6 | 2.7 | -2.9 | -5.5 | -0.7 | -5.6 | -1.1 | -8.4 | -7.8 | -0.6 | 0.6 | -10.8 | -3.7 | -0.5 | 0.2 |
| COc1ccc(-c2ccc3ncc4c(c3c2)n(-c2ccc(N3CCNCC3)c(C(F)(F)F)c2)c(=O)n4C)cn1 [NVP-BGT226] (top concentration 1000 nM) | -2.88 | 2.82 | 5.02 | 7.92 | 2.22 | 6.02 | 5.92 | 0.72 | 4.32 | 1.52 | 3.92 | 10.2 | 2.32 | 2.72 | 5.42 | -0.18 | -3.58 | 14.2 | 0.72 | 6.72 |
| COc1nc(N)nc2c1ncn2[C@@H]1O[C@H](CO)[C@@H](O)[C@@H]1O [Nelarabine] (top concentration 10000 nM) | -10.2 | -2.82 | 2.78 | -10.2 | -7.22 | -1.62 | -2.32 | 4.78 | -4.82 | 8.78 | -4.22 | 5.78 | -3.12 | 4.68 | -0.72 | -5.82 | -10.2 | 1.58 | 4.58 | 0.08 |
| Cc1cn(-c2cc(NC(=O)c3ccc(C)c(Nc4nccc(-c5cccnc5)n4)c3)cc(C(F)(F)F)c2)cn1 [Nilotinib] (top concentration 10000 nM) | 5.8 | 43.3 | 16.4 | 4.1 | 9.1 | 2.7 | 0 | 8.2 | 0 | 2.1 | 8.9 | 31.6 | 2 | 0.6 | 3.6 | 0 | 0 | 1.3 | 0 | 4.6 |
| NC(=O)c1cccc2cn(-c3ccc(C4CCCNC4)cc3)nc12 (stereo not given) [Niraparib] (top concentration 10000 nM) | 4.08 | 2.88 | 3.88 | 4.28 | 3.38 | -2.12 | 8.48 | 14.2 | 1.18 | 12.8 | 3.78 | 17.2 | 4.58 | 0.68 | 3.58 | 1.58 | -3.32 | 12.9 | 7.88 | 6.08 |
| COc1ccc(C[C@H](NC(=O)[C@H](C)NC(=O)CN2CCOCC2)C(=O)N[C@@H](Cc2ccccc2)C(=O)[C@@]2(C)CO2)cc1 [ONX-0914] (top concentration 10000 nM) | 9.8 | 3.8 | 2.2 | 0.6 | -1.2 | 6.5 | 2 | -0.8 | -1.7 | 0.5 | 0.5 | 11.5 | 2.9 | 7.3 | 1.9 | 0.9 | -4.2 | -5 | 4.7 | -3.9 |
| CC(=O)c1cnc2ccc(-c3cc(Cl)c(O)c(Cl)c3)nc2c1N[C@H]1CC[C@H](CN(C)C)CC1 [OTS167] (top concentration 1000 nM) | -8.72 | 2.08 | 3.78 | 4.58 | -3.42 | -2.62 | 7.08 | 6.58 | -1.52 | 2.78 | 3.18 | 2.98 | 2.58 | -3.32 | -1.32 | 5.88 | -12.1 | 5.48 | 3.58 | -2.12 |
| COC(=O)C[C@](O)(CCCC(C)(C)O)C(=O)O[C@@H]1C(OC)=C[C@]23CCCN2CCc2cc4c(cc2[C@H]13)OCO4 [Omacetaxine] (top concentration 10000 nM) | -6.78 | -1.88 | 2.62 | 10.8 | 1.52 | 0.62 | 7.92 | 4.12 | 4.52 | 5.62 | 3.82 | 7.82 | 3.52 | 0.82 | 3.32 | 4.82 | -14.8 | 10.5 | 7.12 | -3.38 |
| C1=N/C2=N/c3ccc(OCCN4CCCC4)c(c3)COC/C=C/COCc3cccc(c3)C(=C1)N2 [Pacritinib] (top concentration 10000 nM) | -8.4 | -3.6 | -4.1 | -2.3 | -5.6 | -7.5 | 2.9 | 0 | -2.3 | -4 | -7.9 | -3.7 | -5.3 | -7.3 | -7.3 | 2.2 | -8.4 | -2.6 | -8.3 | -0.4 |
| Cc1[nH]c2ccccc2c1CCNCc1ccc(/C=C/C(=O)NO)cc1 [Panobinostat] (top concentration 1000 nM) | -0.46 | 6.04 | 3.64 | 14.3 | 5.84 | 4.34 | 14.6 | 14.2 | 4.14 | 6.74 | 8.44 | 10.2 | 4.94 | 4.14 | 2.94 | 7.74 | -6.56 | 7.64 | 6.34 | 6.14 |
| Cc1ccc(Nc2nccc(N(C)c3ccc4c(C)n(C)nc4c3)n2)cc1S(N)(=O)=O [Pazopanib] (top concentration 10000 nM) | -1.26 | 2.64 | 0.14 | 3.44 | 5.24 | 1.74 | -1.26 | 0.74 | -1.26 | -1.26 | 6.24 | -0.96 | -1.26 | 1.04 | -1.06 | 2.24 | -1.26 | 4.94 | -1.26 | -1.06 |
| Nc1nc2[nH]cc(CCc3ccc(C(=O)N[C@@H](CCC(=O)O)C(=O)O)cc3)c2c(=O)[nH]1 [Pemetrexed] (top concentration 10000 nM) | 12.2 | 15.5 | 21.9 | 19.3 | 21 | 12.1 | 7.98 | 27.3 | 24.5 | 20.2 | 18.7 | 28 | 15.2 | 26.1 | 21.5 | 19.1 | -0.72 | 28.3 | 25.1 | 30.9 |
| Cc1ccc(C(=O)Nc2ccc(CN3CCN(C)CC3)c(C(F)(F)F)c2)cc1C#Cc1cnc2cccnn12 [Ponatinib] (top concentration 1000 nM) | -3.08 | 41.7 | 17.6 | -1.78 | 0.32 | 6.62 | 10.2 | 10.3 | 0.82 | 7.42 | 5.92 | 31.8 | 4.72 | 1.22 | 4.32 | 16 | -3.78 | 6.62 | -1.98 | 14.1 |
| C[C@]12C=CC(=O)C=C1CC[C@@H]1[C@@H]2[C@@H](O)C[C@@]2(C)[C@H]1CC[C@]2(O)C(=O)CO [Prednisolone] (top concentration 10000 nM) | 18 | 8.9 | 2.5 | 13.5 | 8.4 | -1.6 | 16.9 | 16.2 | 15.9 | -0.5 | 23.1 | 28.1 | 25.5 | 14.6 | 1.1 | -3 | -2.8 | 17.8 | 2.6 | 28.9 |
| CC(C)(C)c1cc(NC(=O)Nc2ccc(-c3cn4c(n3)sc3cc(OCCN5CCOCC5)ccc34)cc2)no1 [Quizartinib] (top concentration 1000 nM) | -1.02 | 3.48 | 2.78 | -1.52 | 4.78 | 0.98 | -1.52 | 5.48 | 1.38 | -1.02 | 2.38 | 0.38 | -1.52 | 0.18 | -0.82 | 17.8 | -1.52 | 0.98 | -0.02 | 14.1 |
| Nc1cc(F)ccc1NC(=O)/C=C/c1cnn(C/C=C/c2ccccc2)c1 [RGFP966] (top concentration 10000 nM) | 12.2 | 12.4 | 15.7 | 8.24 | 12.2 | 11.1 | 6.84 | 17.5 | 13.3 | 17.1 | 7.84 | 18 | 2.94 | 17.8 | 8.94 | 9.44 | -0.26 | 13.2 | 16.6 | 3.64 |
| CNC(=O)c1cc(Oc2ccc(NC(=O)Nc3ccc(Cl)c(C(F)(F)F)c3)c(F)c2)ccn1 [Regorafenib] (top concentration 10000 nM) | 3.24 | 10 | 6.74 | 10 | 6.74 | 4.34 | 1.24 | 1.84 | 4.04 | 4.04 | 1.64 | 9.14 | 2.74 | 3.24 | 3.24 | 7.34 | 4.44 | 7.94 | 2.54 | 7.14 |
